# Experiments:
# [1] = molecular target: T1, Serine/threonine-protein kinase PLK4 (Homo sapiens, UniProt O00444); test: Inhibition of N-terminal GST-tagged human PLK4 (1 to 391 amino acids) expressed in Escherichia coli using TMB as substrate after 30 mins by indirect ELISA assay
# T1 sequence (O00444 whole entry): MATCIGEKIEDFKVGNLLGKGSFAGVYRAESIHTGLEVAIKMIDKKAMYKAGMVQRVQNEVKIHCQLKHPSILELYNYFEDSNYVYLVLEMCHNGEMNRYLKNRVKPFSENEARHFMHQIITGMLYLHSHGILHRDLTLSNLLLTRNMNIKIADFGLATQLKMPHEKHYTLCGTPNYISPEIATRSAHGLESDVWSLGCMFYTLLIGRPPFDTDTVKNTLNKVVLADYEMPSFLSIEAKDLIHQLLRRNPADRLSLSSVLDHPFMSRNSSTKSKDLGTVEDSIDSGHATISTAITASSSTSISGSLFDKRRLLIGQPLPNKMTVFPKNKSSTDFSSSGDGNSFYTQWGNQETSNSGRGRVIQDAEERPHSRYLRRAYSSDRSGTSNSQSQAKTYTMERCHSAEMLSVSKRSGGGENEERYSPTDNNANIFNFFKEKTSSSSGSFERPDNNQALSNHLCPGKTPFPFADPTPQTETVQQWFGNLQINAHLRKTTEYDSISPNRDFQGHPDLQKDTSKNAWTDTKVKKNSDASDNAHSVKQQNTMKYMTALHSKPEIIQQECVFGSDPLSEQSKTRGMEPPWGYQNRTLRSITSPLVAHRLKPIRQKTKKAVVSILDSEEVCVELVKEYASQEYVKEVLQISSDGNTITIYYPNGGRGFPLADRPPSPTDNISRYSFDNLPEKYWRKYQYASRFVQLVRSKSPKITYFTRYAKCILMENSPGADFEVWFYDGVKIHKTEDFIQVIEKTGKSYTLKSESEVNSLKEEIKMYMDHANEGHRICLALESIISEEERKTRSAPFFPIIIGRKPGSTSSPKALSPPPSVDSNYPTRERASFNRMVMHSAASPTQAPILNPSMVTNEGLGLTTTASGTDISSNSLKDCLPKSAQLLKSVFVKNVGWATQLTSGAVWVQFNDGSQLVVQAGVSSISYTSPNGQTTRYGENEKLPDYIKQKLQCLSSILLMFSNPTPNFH
# [2] = molecular target: Serine/threonine-protein kinase PLK1 (Homo sapiens, UniProt P53350); test: Inhibition of PLK1 (unknown origin) by FRET-based homogeneous assay
# [3] = molecular target: Serine/threonine-protein kinase PLK3 (Homo sapiens, UniProt Q9H4B4); test: Inhibition of PLK3 (unknown origin) by FRET-based homogeneous assay
# [4] = molecular target: Serine/threonine-protein kinase PLK2 (Homo sapiens, UniProt Q9NYY3); test: Inhibition of PLK2 (unknown origin) by FRET-based homogeneous assay
# MCF7 = test: Antiproliferative activity against human MCF7 cells assessed as growth inhibition after 5 days by SRB assay; assay type: functional; settings: MCF7, 120 h
# MDA-MB-468 = test: Antiproliferative activity against human MDA-MB-468 cells assessed as growth inhibition after 5 days by SRB assay; assay type: functional; settings: MDA-MB-468, 120 h
# HCC1954 = test: Antiproliferative activity against human HCC1954 cells assessed as growth inhibition after 5 days by SRB assay; assay type: functional; settings: HCC1954, 120 h
# MDA-MB-231 = test: Antiproliferative activity against human MDA-MB-231 cells assessed as growth inhibition after 5 days by SRB assay; assay type: functional; settings: MDA-MB-231, 120 h
# SK-BR-3 = test: Antiproliferative activity against human SKBR3 cells assessed as growth inhibition after 5 days by SRB assay; assay type: functional; settings: SK-BR-3, 120 h
# Sequence of Serine/threonine-protein kinase PLK2 (Q9NYY3 whole entry): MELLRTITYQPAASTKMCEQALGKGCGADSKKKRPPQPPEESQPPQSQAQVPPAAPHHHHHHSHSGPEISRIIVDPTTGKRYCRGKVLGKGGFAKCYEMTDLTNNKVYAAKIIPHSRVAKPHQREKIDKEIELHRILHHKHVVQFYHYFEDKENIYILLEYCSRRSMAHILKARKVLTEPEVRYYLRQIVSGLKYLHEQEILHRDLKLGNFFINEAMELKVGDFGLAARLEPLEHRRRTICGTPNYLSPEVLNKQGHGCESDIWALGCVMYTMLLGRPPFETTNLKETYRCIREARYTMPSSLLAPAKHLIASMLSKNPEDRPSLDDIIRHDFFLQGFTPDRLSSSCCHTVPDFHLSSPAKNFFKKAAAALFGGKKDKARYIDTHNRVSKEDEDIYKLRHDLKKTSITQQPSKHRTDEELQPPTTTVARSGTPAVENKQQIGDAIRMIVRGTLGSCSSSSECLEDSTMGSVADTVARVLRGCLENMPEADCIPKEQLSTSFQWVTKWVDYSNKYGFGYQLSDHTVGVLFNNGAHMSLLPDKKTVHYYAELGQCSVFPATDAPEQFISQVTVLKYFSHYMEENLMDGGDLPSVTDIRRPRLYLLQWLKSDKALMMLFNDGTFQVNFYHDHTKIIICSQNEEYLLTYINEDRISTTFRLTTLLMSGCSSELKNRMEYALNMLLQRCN
# Sequence of Serine/threonine-protein kinase PLK1 (P53350 whole entry): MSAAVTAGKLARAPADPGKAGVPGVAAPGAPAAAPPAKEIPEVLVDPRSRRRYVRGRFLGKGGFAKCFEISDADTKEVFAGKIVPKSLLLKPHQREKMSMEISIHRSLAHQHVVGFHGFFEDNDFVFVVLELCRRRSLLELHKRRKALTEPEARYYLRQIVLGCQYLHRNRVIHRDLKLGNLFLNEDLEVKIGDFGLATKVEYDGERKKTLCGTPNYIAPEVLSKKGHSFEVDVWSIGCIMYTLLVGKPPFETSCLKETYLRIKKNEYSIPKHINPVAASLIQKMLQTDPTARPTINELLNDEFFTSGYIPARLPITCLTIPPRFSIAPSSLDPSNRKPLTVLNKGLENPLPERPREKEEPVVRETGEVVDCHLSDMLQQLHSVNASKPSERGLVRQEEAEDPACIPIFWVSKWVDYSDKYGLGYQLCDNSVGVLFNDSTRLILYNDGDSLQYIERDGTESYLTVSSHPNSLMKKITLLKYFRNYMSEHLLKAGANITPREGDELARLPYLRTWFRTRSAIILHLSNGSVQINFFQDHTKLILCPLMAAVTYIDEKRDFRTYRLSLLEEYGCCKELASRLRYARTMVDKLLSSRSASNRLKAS
# Sequence of Serine/threonine-protein kinase PLK3 (Q9H4B4 whole entry): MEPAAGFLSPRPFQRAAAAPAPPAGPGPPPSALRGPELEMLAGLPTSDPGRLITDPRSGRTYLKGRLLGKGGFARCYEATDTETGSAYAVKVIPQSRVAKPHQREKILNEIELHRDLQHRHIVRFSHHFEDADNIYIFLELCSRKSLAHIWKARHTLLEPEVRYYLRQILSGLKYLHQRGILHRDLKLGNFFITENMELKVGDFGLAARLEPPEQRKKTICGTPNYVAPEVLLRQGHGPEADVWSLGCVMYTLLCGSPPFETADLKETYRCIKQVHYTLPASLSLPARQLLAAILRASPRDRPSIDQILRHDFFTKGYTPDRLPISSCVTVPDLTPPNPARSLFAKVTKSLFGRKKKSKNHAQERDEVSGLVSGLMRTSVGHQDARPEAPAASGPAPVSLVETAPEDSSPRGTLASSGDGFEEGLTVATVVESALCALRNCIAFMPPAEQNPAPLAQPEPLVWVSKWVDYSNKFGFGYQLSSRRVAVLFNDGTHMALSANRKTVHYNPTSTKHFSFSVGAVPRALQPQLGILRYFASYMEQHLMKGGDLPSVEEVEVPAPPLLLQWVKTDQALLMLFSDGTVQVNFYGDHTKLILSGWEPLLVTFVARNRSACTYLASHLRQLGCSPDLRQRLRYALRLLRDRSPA
IC50 [1],IC50 [2],IC50 [3],IC50 [4],GI50 (MCF7),GI50 (MDA-MB-468),GI50 (HCC1954),GI50 (MDA-MB-231),GI50 (SK-BR-3),SMILES
10 µM,49 µM,,,,,,,,CNC(=O)c1ccc2c(c1)/C(=C\c1ccc3cn[nH]c3c1)C(=O)N2
0.00048 µM,> 10 µM,> 10 µM,> 10 µM,0.12 µM,0.19 µM,> 50 µM,> 50 µM,4.6 µM,COc1ccc2c(c1)/C(=C\c1ccc3c(/C=C/c4cccnc4)n[nH]c3c1)C(=O)N2
0.0014 µM,> 10 µM,> 10 µM,> 10 µM,0.07 µM,0.12 µM,13 µM,5 µM,> 50 µM,Cc1ccc2c(c1)/C(=C\c1ccc3c(/C=C/c4ccncc4)n[nH]c3c1)C(=O)N2
13 µM,> 10 µM,,,,,,,,O=C1Nc2ccc(Br)cc2/C1=C/c1ccc(O)c(O)c1
,24 µM,> 10 µM,5.7 µM,,,,,,O=C1Nc2ccccc2/C1=C\c1ccc2cn[nH]c2c1
2.2 µM,29 µM,> 10 µM,8.9 µM,,,,,,O=C1Nc2ccccc2/C1=C\c1ccc2[nH]nnc2c1
0.06 µM,15 µM,,4.4 µM,,,,,,O=C1Nc2ccc(F)cc2/C1=C\c1ccc2cn[nH]c2c1

# More lines, now with the values behind:
SMILES,IC50 [1],IC50 [2],IC50 [3],IC50 [4],GI50 (MCF7),GI50 (MDA-MB-468),GI50 (HCC1954),GI50 (MDA-MB-231),GI50 (SK-BR-3)
O=C1Nc2ccc(I)cc2/C1=C/c1cc(Br)c(O)c(Br)c1,0.23 µM,4.6 µM,,,,,,,
O=C1Nc2ccc(Cl)cc2/C1=C\c1ccc2c(/C=C/c3ccncc3)n[nH]c2c1,0.0023 µM,> 10 µM,> 10 µM,> 10 µM,0.16 µM,0.32 µM,> 50 µM,> 50 µM,> 50 µM
O=C1Nc2ccccc2/C1=C/c1ccccc1O,6.1 µM,29 µM,,,,,,,
O=C1Nc2ccccc2/C1=C\c1ccc2c(/C=C/c3ccccn3)n[nH]c2c1,0.013 µM,> 10 µM,> 10 µM,> 10 µM,1.7 µM,0.78 µM,30 µM,8.1 µM,1.2 µM
CNC(=O)c1ccccc1Sc1ccc2c(/C=C/c3ccccn3)n[nH]c2c1 [AXITINIB],,,,,,1.3 µM,2.7 µM,,
COc1cc(/C=C2\C(=O)Nc3ccc(Br)cc32)cc(Cl)c1O,0.86 µM,3.6 µM,,,,,,,
O=C1Nc2ccccc2/C1=C/c1ccc(O)cc1,0.23 µM,25 µM,,,,,,,
COc1cc(/C=C2\C(=O)N(C)c3ccc(Br)cc32)cc(Cl)c1O,6.1 µM,> 10 µM,,,,,,,
COc1cc(/C=C2\C(=O)Nc3ccc(Br)cc32)cc(Br)c1OC,13 µM,> 10 µM,,,,,,,
